Measurements as given in patent US20240140991A1, “ANTIBIOTIC NATURAL PRODUCT ANALOGUES” (THE QUEEN'S UNIVERSITY OF BELFAST, priority 2021, published 2024).
In brackets after ≈: the same amount, converted by molar mass. Like-named read-outs stand apart in the source and are kept apart here. Positions of bridges follow the written chain, without caps; N, C: chain ends. Non-standard residues stand in square brackets, D forms with d. Residues, ends and D or L forms follow the SMILES beside them. *: point of attachment. Octanoyl(7-Me) = CC(C)CCCCCC(=O)*; dOrn = NCCC[C@@H](N)C(=O)O; Orn = NCCC[C@H](N)C(=O)O; Dap = NC[C@H](N)C(=O)O

Columns and labels:
[1] = test system: Acinetobacter baumannii ATCC 17961; assay type: cell-based; details: A. baumannii ATCC 17961
Method in brief: (§1)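 Broth microdilution in MHB per CLSI; inoculum 2×10^5 CFU mL^−1 from log-phase TSB cultures at OD600 0.5. Plates incubated 16 hours at 37° C with shaking at 220 rpm. MIC is the lowest concentration preventing visible growth.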

[2] = test system: Escherichia coli ATCC 25922; assay type: cell-based
Method in brief: as §1

[3] = test system: Staphylococcus aureus USA300; assay type: cell-based; details: S. aureus USA300 (Gram-positive)
Method in brief: as §1

[4] = test system: Pseudomonas aeruginosa ATCC 27853; assay type: cell-based; details: P. aeruginosa ATCC 27853
Method in brief: as §1

K. pneumoniae JS-123 = assay type: cell-based, Klebsiella pneumoniae
Method in brief: as §1

K. pneumoniae ATCC 11228 = assay type: cell-based, Klebsiella pneumoniae; details: K. pneumoniae ATCC 11228
Method in brief: as §1

K. pneumoniae 2048 = assay type: cell-based, Klebsiella pneumoniae; details: K. pneumoniae 2048 clinical isolate
Method in brief: as §1

K. pneumoniae ATCC 13883 = assay type: cell-based, Klebsiella pneumoniae; details: K. pneumoniae ATCC 13883
Method in brief: as §1

A. baumannii ATCC 17978 = assay type: cell-based, Acinetobacter baumannii; details: A. baumannii ATCC 17978
Method in brief: as §1

A. baumannii 2018-006 = assay type: cell-based, Acinetobacter baumannii; details: A. baumannii 2018-006 clinical isolate
Method in brief: as §1

A. baumannii MDR = assay type: cell-based, Acinetobacter baumannii; details: A. baumannii MDR clinical isolate
Method in brief: as §1

P. aeruginosa NRZ-03961 = assay type: cell-based, Pseudomonas aeruginosa; details: P. aeruginosa NRZ-03961
Method in brief: as §1

P. aeruginosa PAO1 = assay type: cell-based, Pseudomonas aeruginosa; details: P. aeruginosa PAO1
Method in brief: as §1

P. aeruginosa M-120 = assay type: cell-based, Pseudomonas aeruginosa
Method in brief: as §1

E. coli EQAS MCR-2 = assay type: cell-based, Escherichia coli; details: E. coli EQAS MCR-2 clinical isolate (colistin resistant)
Method: (§2) Minimum inhibitory concentration (MIC) was determined by broth microdilution according to CLSI guidelines. Blood agar plates were inoculated with glycerol stocks of Escherichia coli ATCC 25922, E. coli ATCC 25922 MCR-1, E. coli MCR-1 (clinical isolate from Utrecht Medical Center, NL), E. coli EQAS MCR-2 (clinical isolate from Wageningen University and Research, NL), Kiebsielia pneumoniae ATCC 11228, K. pneumoniae ATCC 13883, K. pneumonia 2048 (clinical isolate from Vrije Universiteit Amsterdam Medical Center, NL), K. pneumonia JS-123 (clinical isolate from Utrecht Medical Center, NL), Acinetobacter baumannii ATCC 17961, A. baumannil ATCC 17978, A. baumannii 2018-006 (clinical isolate from Rijksinstituut voor Volksgezondheid en Milieu, NL), A. baumannii MDR (clinical isolate from Vrije Universiteit Amsterdam Medical Center, NL), Pseudomonas aeruginosa ATCC 27853, P. aeruginosa PAO1, P. aeruginosa NRZ-03961 (Reference strain from Das Nationale Referenzzentrum für gramnegative Krankenhauserreger, DE), P. aeruginosa M-120 (clinical isolate from Leiden University Medical Center, NL) and Staphylococcus aureus USA300 (clinical isolate from Texas Children's Hospitalm, USA). E. coli 25922 MCR1 was grown on LB agar supplemented with kanamycin. The inoculated agar plates were then incubated for 16 hours at 37° C. Individually grown colonies were subsequently used to inoculate 3 mL aliquots of TSB that were then incubated at 37° C. with shaking at 220 rpm. In parallel, the compounds to be assessed were serially diluted with Mueller-Hinton broth (MHB) in polypropylene 96-well plates (50 μL in each well). Once the OD600 of the bacterial suspensions reached 0.5, the bacteria were diluted with MHB (final concentration 2×10^5 CFU mL^−1) and added to the microplates containing the test compounds (50 μL to each well, final volume: 100 μL). The well-plates were sealed with an adhesive membrane and after 16 hours of incubation at 37° C. with shaking at 220 rpm the wells were visually inspected for bacterial growth. MIC values were defined as the lowest concentration of the compound that prevented visible growth of bacteria.
(§3) In the table above, “MCR” denotes that one of the MCR family of genes, which confers colistin resistance, is present in the bacterial strain. Thus, E. coli ATCC 25922 MCR-1, E. coli MCR-1 and E. coli EQAS MCR-2 are each colistin resistant. […] Therefore, laterocidamide may overcome some of the challenges faced due to antibiotic resistance.

E. coli ATCC 25922 MCR-1 = assay type: cell-based, Escherichia coli; details: E. coli ATCC 25922 MCR-1 (colistin resistant)
Method: as §2, §3

E. coli MCR-1 = assay type: cell-based, Escherichia coli; details: E. coli MCR-1 clinical isolate (colistin resistant)
Method: as §2, §3

HepG2 cells = assay: Cytotoxicity MTT assay; details: HepG2, 128 μg/mL, 24 h
Method: In addition to a single vehicle control, compounds (diluted from DMSO stock) were added to each well to obtain in a final 128 μg/mL concentration (max. final DMSO concentration 0.5%) for all compounds except for oritavancin which was administered at 50 μM. Incubation was done for 24 h at 37° C., 7% CO2. After the incubation, MTT was added to each well at a final concentration of 0.40 mg/mL. The plates were then incubated for 2 h at 37° C., 7% CO2. Medium was carefully removed via suction, and purple formazan crystals were resuspended in 100 μL DMSO. Absorbance was read at 570 nm using a Clariostar plate reader. The data was then analysed with GraphPad Prism software. Technical triplicates for each condition were used, along with biological duplicates.

E. coli ATCC 25922 = assay: Mouse thigh abscess (neutropenic thigh infection) efficacy model; assay type: in vivo, mice (ICR, CD1)
Method: Efficacy study: The in vivo efficacy of compound 6 was assessed in a mouse thigh abscess model where both thighs of each mouse were infected with E. coli ATCC 25922 Immunosuppression: Mice were rendered neutropenic with subcutaneous injections of cyclophosphamide at 150 mg/kg 4 days before infection and 100 mg/kg 1 day before infection. The immunosuppression regime leads to neutropenia starting 24 h post administration of the first injection, which continues throughout the study.
Infection: The bacterial strain used was E. coli ATCC 25922. An aliquot of a previously prepared frozen stock of the strain was thawed and diluted in sterile PBS to the desired inoculum just prior to infection. […]
Endpoints: 1 h and 20.5 (planned 25) h post-infection, the clinical condition of all animals was assessed prior to humane euthanasia using pentobarbitone overdose, and the thighs were removed and weighed. Thigh samples were homogenized in 3 mL ice cold sterile PBS; the homogenates were quantitatively cultured onto CLED agar and incubated at 37° C. for 18-24 h before colonies were counted.
Data analysis: The data from the culture burdens were analysed using appropriate non-parametric statistical models (Kruskal-Wallis using Conover-Inman to make all pairwise comparisons between groups) with StatsDirect software v. […]

[5] = In vivo tolerability study; set-up: species or system mice (ICR, CD1); details: subcutaneous, 3 doses at 8-h intervals, up to 40 mg/kg (total daily dose 120 mg/kg), naive mice
Method: Animal Strain: Mice used in these studies were supplied by Charles River (Margate UK) and were specific pathogen free. The strain of mice used was ICR (also known as CD1 Mice) which is a well characterized outbred murine strain. Mice (male) were 11-15 g on receipt and were allowed to acclimatise for at least 7 days.
Test compounds: Compound 6 (i.e. laterocidamide) was dissolved in water for injection in which it formed a clear colourless solution. Polymyxin B was dissolved in saline for injection to produce a clear colourless solution.
Tolerability study: The tolerability of compound 6 was assessed in the same mouse strain used for the efficacy studies. […] The mice used in the tolerability study were naïve and were not immunosuppressed or infected.

## colistin [reference compound]
[1]
  Minimum inhibitory concentration (MIC): ≤0.5 µg/mL
[2]; E. coli ATCC 25922
  Minimum inhibitory concentration (MIC): 0.25 to 0.5 µg/mL
[3]
  Minimum inhibitory concentration (MIC): >64 µg/mL
[4]
  Minimum inhibitory concentration (MIC): 1 µg/mL
K. pneumoniae JS-123; K. pneumoniae JS-123 clinical isolate
  Minimum inhibitory concentration (MIC): ≤0.5 µg/mL
K. pneumoniae ATCC 11228
  Minimum inhibitory concentration (MIC): ≤0.5 µg/mL
K. pneumoniae 2048
  Minimum inhibitory concentration (MIC): 2 µg/mL
K. pneumoniae ATCC 13883
  Minimum inhibitory concentration (MIC): 1 µg/mL
A. baumannii ATCC 17978
  Minimum inhibitory concentration (MIC): ≤0.5 µg/mL
A. baumannii 2018-006
  Minimum inhibitory concentration (MIC): ≤0.5 µg/mL
A. baumannii MDR
  Minimum inhibitory concentration (MIC): ≤0.5 µg/mL
P. aeruginosa NRZ-03961
  Minimum inhibitory concentration (MIC): <0.5 µg/mL
P. aeruginosa PAO1
  Minimum inhibitory concentration (MIC): ≤0.5 µg/mL
P. aeruginosa M-120; P. aeruginosa M-120 clinical isolate
  Minimum inhibitory concentration (MIC): 1 µg/mL
E. coli EQAS MCR-2
  Minimum inhibitory concentration (MIC): 2 to 4 µg/mL
E. coli ATCC 25922 MCR-1
  Minimum inhibitory concentration (MIC): 2 to 4 µg/mL
E. coli MCR-1
  Minimum inhibitory concentration (MIC): 2 to 4 µg/mL

## CC[C@H](C)[C@@H]1NC(=O)[C@@H](NC(=O)[C@H](Cc2c[nH]c3ccccc23)NC(=O)[C@@H](CCCN)NC(=O)CNC(=O)[C@H](CCCN)NC(=O)[C@@H](CCCN)NC(=O)[C@@H](Cc2c[nH]c3ccccc23)NC(=O)[C@@H](Cc2ccc(O)cc2)NC(=O)[C@@H](CO)NC(=O)CCCCCC(C)C)CNC(=O)CNC(=O)CNC(=O)[C@H](CC(N)=O)NC1=O [Laterocidamide, laterocidamide] ({Octanoyl(7-Me)}-[dS][dY][dW][dOrn][Orn]G[dOrn]W[Dap]INGG; lactam 9-C)
HepG2 cells
  cytotoxicity / cell viability: completely non-toxic
HepG2 cells; listed as compound 6
  cytotoxicity / cell viability: low cytotoxicity
[2]; in vitro activity quoted in the in vivo section
  MIC values against E. coli ATCC 25922: 1 µg/mL (≈ 0.629 µM)
E. coli ATCC 25922; 40 mg/kg SC q8h, neutropenic mice, thigh burden
  reduction in bacterial load relative to the untreated group: ~5 log
E. coli ATCC 25922; 10, 20 and 40 mg/kg SC q8h
  dose response of thigh burden: clear dose response
K. pneumoniae JS-123; JS-123
  Minimum inhibitory concentration (MIC): ≤0.5 µg/mL
A. baumannii MDR
  Minimum inhibitory concentration (MIC): 4 µg/mL (≈ 2.52 µM)
P. aeruginosa M-120; M-120
  Minimum inhibitory concentration (MIC): 2 to 4 µg/mL
[5]; listed as Compound 6
  tolerability: good tolerability
[5]; listed as compound 6
  tolerability: well tolerated
